Test results: publication PMC7114321 (Antiviral Research, 2005)
In brackets after ≈: the same amount, converted by molar mass.

How the values were obtained:
Sindbis virus = settings: cited from earlier work
in vitro = settings: African green monkey, CC50 of cell death

In the case of `C=CCC(=NOS(=O)(=O)O)S[C@@H]1O[C@H](CO)[C@@H](O)[C@H](O)[C@H]1O` (stereo in doubt) [Sinigrin], the CC50 (Vero cells) is reported as > 10000 µM and the “CC50 of cell death” value (Vero cells) is reported as >5000 (>10,000 μM) μg/ml.

For `COc1ccc([C@@H]2CC(=O)c3c(O)cc(O)cc3O2)cc1O` [Hesperetin], the “IC50, inhibitory activity on Sindbis virus infection” value (Sindbis virus) is listed as 20.5 µg/mL (≈ 0.0678 mM) and the IC50 (Sindbis virus; read-out: IC50, inhibitory activity on Sindbis virus infection) is listed as ~68 µM.

Compound `O=C1/C(=C2\Nc3ccccc3C2=O)Nc2ccccc21` [Indigo] has a CC50 (in vitro) of 917 µg/mL (≈ 3.5 mM).
